Results reported in ChEMBL document CHEMBL4627246, “Pyroglutamide-Based P2X7 Receptor Antagonists Targeting Inflammatory Bowel Disease” (J Med Chem, 2020).

Tested on: RPMI-8226
Assay: Cytotoxicity against human RPMI8226 cells assessed as effect on cell growth at 10 uM incubated for 48 hrs by sulforhodamine B assay
Assay type: cell-based
Conditions: rpmi-8226, 48 h

SMILES	Activity
CN(C)C(=O)[C@@H]1CCC(=O)N1	Non-Toxic
O=C(NCc1ccc(Cl)cc1Cl)[C@@H]1CCC(=O)N1C(c1ccc(Cl)cc1)c1ccc(Cl)cc1	Non-Toxic
O=C(NCc1ccc(Cl)cc1Cl)[C@@H]1CCC(=O)N1c1cncs1	Non-Toxic

Tested on: EKVX
Assay: Cytotoxicity against human EKVX cells assessed as effect on cell growth at 10 uM incubated for 48 hrs by sulforhodamine B assay
Assay type: cell-based
Conditions: not given

SMILES	Activity
CN(C)C(=O)[C@@H]1CCC(=O)N1	Non-Toxic
O=C(NCc1ccc(Cl)cc1Cl)[C@@H]1CCC(=O)N1C(c1ccc(Cl)cc1)c1ccc(Cl)cc1	Non-Toxic
O=C(NCc1ccc(Cl)cc1Cl)[C@@H]1CCC(=O)N1c1cncs1	Non-Toxic

Tested on: SW-620
Assay: Cytotoxicity against human SW620 cells assessed as effect on cell growth at 10 uM incubated for 48 hrs by sulforhodamine B assay
Assay type: cell-based
Conditions: sw-620, 48 h

SMILES	Activity
CN(C)C(=O)[C@@H]1CCC(=O)N1	Non-Toxic
O=C(NCc1ccc(Cl)cc1Cl)[C@@H]1CCC(=O)N1C(c1ccc(Cl)cc1)c1ccc(Cl)cc1	Non-Toxic
O=C(NCc1ccc(Cl)cc1Cl)[C@@H]1CCC(=O)N1c1cncs1	Non-Toxic

Tested on: A549
Assay: Cytotoxicity against human A549/ATCC cells assessed as effect on cell growth at 10 uM incubated for 48 hrs by sulforhodamine B assay
Assay type: cell-based
Conditions: a549, 48 h

SMILES	Activity
CN(C)C(=O)[C@@H]1CCC(=O)N1	Non-Toxic
O=C(NCc1ccc(Cl)cc1Cl)[C@@H]1CCC(=O)N1C(c1ccc(Cl)cc1)c1ccc(Cl)cc1	Non-Toxic
O=C(NCc1ccc(Cl)cc1Cl)[C@@H]1CCC(=O)N1c1cncs1	Non-Toxic

Tested on: HL-60(TB)
Assay: Cytotoxicity against human HL-60(TB) cells assessed as effect on cell growth at 10 uM incubated for 48 hrs by sulforhodamine B assay
Assay type: cell-based
Conditions: not given

SMILES	Activity
CN(C)C(=O)[C@@H]1CCC(=O)N1	Non-Toxic
O=C(NCc1ccc(Cl)cc1Cl)[C@@H]1CCC(=O)N1C(c1ccc(Cl)cc1)c1ccc(Cl)cc1	Non-Toxic
O=C(NCc1ccc(Cl)cc1Cl)[C@@H]1CCC(=O)N1c1cncs1	Non-Toxic

Tested on: MOLT-4
Assay: Cytotoxicity against human MOLT4 cells assessed as effect on cell growth at 10 uM incubated for 48 hrs by sulforhodamine B assay
Assay type: cell-based
Conditions: molt-4, 48 h

SMILES	Activity
CN(C)C(=O)[C@@H]1CCC(=O)N1	Non-Toxic
O=C(NCc1ccc(Cl)cc1Cl)[C@@H]1CCC(=O)N1C(c1ccc(Cl)cc1)c1ccc(Cl)cc1	Non-Toxic
O=C(NCc1ccc(Cl)cc1Cl)[C@@H]1CCC(=O)N1c1cncs1	Non-Toxic

Tested on: SF-295
Assay: Cytotoxicity against human SF295 cells assessed as effect on cell growth at 10 uM incubated for 48 hrs by sulforhodamine B assay
Assay type: cell-based
Conditions: sf-295, 48 h

SMILES	Activity
CN(C)C(=O)[C@@H]1CCC(=O)N1	Non-Toxic
O=C(NCc1ccc(Cl)cc1Cl)[C@@H]1CCC(=O)N1C(c1ccc(Cl)cc1)c1ccc(Cl)cc1	Non-Toxic
O=C(NCc1ccc(Cl)cc1Cl)[C@@H]1CCC(=O)N1c1cncs1	Non-Toxic

Tested on: ACHN
Assay: Cytotoxicity against human ACHN cells assessed as effect on cell growth at 10 uM incubated for 48 hrs by sulforhodamine B assay
Assay type: cell-based
Conditions: not given

SMILES	Activity
CN(C)C(=O)[C@@H]1CCC(=O)N1	Non-Toxic
O=C(NCc1ccc(Cl)cc1Cl)[C@@H]1CCC(=O)N1C(c1ccc(Cl)cc1)c1ccc(Cl)cc1	Non-Toxic
O=C(NCc1ccc(Cl)cc1Cl)[C@@H]1CCC(=O)N1c1cncs1	Non-Toxic

Tested on: M14
Assay: Cytotoxicity against human M14 cells assessed as effect on cell growth at 10 uM incubated for 48 hrs by sulforhodamine B assay
Assay type: cell-based
Conditions: m14, 48 h

SMILES	Activity
CN(C)C(=O)[C@@H]1CCC(=O)N1	Non-Toxic
O=C(NCc1ccc(Cl)cc1Cl)[C@@H]1CCC(=O)N1C(c1ccc(Cl)cc1)c1ccc(Cl)cc1	Non-Toxic
O=C(NCc1ccc(Cl)cc1Cl)[C@@H]1CCC(=O)N1c1cncs1	Non-Toxic

Tested on: A498
Assay: Cytotoxicity against human A498 cells assessed as effect on cell growth at 10 uM incubated for 48 hrs by sulforhodamine B assay
Assay type: cell-based
Conditions: a498, 48 h

SMILES	Activity
CN(C)C(=O)[C@@H]1CCC(=O)N1	Non-Toxic
O=C(NCc1ccc(Cl)cc1Cl)[C@@H]1CCC(=O)N1C(c1ccc(Cl)cc1)c1ccc(Cl)cc1	Non-Toxic
O=C(NCc1ccc(Cl)cc1Cl)[C@@H]1CCC(=O)N1c1cncs1	Non-Toxic

Tested on: SR
Assay: Cytotoxicity against human SR cells assessed as effect on cell growth at 10 uM incubated for 48 hrs by sulforhodamine B assay
Assay type: cell-based
Conditions: not given

SMILES	Activity
CN(C)C(=O)[C@@H]1CCC(=O)N1	Non-Toxic
O=C(NCc1ccc(Cl)cc1Cl)[C@@H]1CCC(=O)N1C(c1ccc(Cl)cc1)c1ccc(Cl)cc1	Non-Toxic
O=C(NCc1ccc(Cl)cc1Cl)[C@@H]1CCC(=O)N1c1cncs1	Non-Toxic

Tested on: HCT-15
Assay: Cytotoxicity against human HCT15 cells assessed as effect on cell growth at 10 uM incubated for 48 hrs by sulforhodamine B assay
Assay type: cell-based
Conditions: hct-15, 48 h

SMILES	Activity
CN(C)C(=O)[C@@H]1CCC(=O)N1	Non-Toxic
O=C(NCc1ccc(Cl)cc1Cl)[C@@H]1CCC(=O)N1C(c1ccc(Cl)cc1)c1ccc(Cl)cc1	Non-Toxic
O=C(NCc1ccc(Cl)cc1Cl)[C@@H]1CCC(=O)N1c1cncs1	Non-Toxic

Tested on: NCI-H460
Assay: Cytotoxicity against human NCI-H460 cells assessed as effect on cell growth at 10 uM incubated for 48 hrs by sulforhodamine B assay
Assay type: cell-based
Conditions: nci-h460, 48 h

SMILES	Activity
CN(C)C(=O)[C@@H]1CCC(=O)N1	Non-Toxic
O=C(NCc1ccc(Cl)cc1Cl)[C@@H]1CCC(=O)N1C(c1ccc(Cl)cc1)c1ccc(Cl)cc1	Non-Toxic
O=C(NCc1ccc(Cl)cc1Cl)[C@@H]1CCC(=O)N1c1cncs1	Non-Toxic

Tested on: UO-31
Assay: Cytotoxicity against human UO31 cells assessed as effect on cell growth at 10 uM incubated for 48 hrs by sulforhodamine B assay
Assay type: cell-based
Conditions: uo-31, 48 h

SMILES	Activity
CN(C)C(=O)[C@@H]1CCC(=O)N1	Non-Toxic
O=C(NCc1ccc(Cl)cc1Cl)[C@@H]1CCC(=O)N1C(c1ccc(Cl)cc1)c1ccc(Cl)cc1	Non-Toxic
O=C(NCc1ccc(Cl)cc1Cl)[C@@H]1CCC(=O)N1c1cncs1	Non-Toxic

Tested on: DU-145
Assay: Cytotoxicity against human DU145 cells assessed as effect on cell growth at 10 uM incubated for 48 hrs by sulforhodamine B assay
Assay type: cell-based
Conditions: du-145, 48 h

SMILES	Activity
CN(C)C(=O)[C@@H]1CCC(=O)N1	Non-Toxic
O=C(NCc1ccc(Cl)cc1Cl)[C@@H]1CCC(=O)N1C(c1ccc(Cl)cc1)c1ccc(Cl)cc1	Non-Toxic
O=C(NCc1ccc(Cl)cc1Cl)[C@@H]1CCC(=O)N1c1cncs1	Non-Toxic

Tested on: SK-OV-3
Assay: Cytotoxicity against human SKOV3 cells assessed as effect on cell growth at 10 uM incubated for 48 hrs by sulforhodamine B assay
Assay type: cell-based
Conditions: sk-ov-3, 48 h

SMILES	Activity
CN(C)C(=O)[C@@H]1CCC(=O)N1	Non-Toxic
O=C(NCc1ccc(Cl)cc1Cl)[C@@H]1CCC(=O)N1C(c1ccc(Cl)cc1)c1ccc(Cl)cc1	Non-Toxic
O=C(NCc1ccc(Cl)cc1Cl)[C@@H]1CCC(=O)N1c1cncs1	Non-Toxic

Tested on: OVCAR-5
Assay: Cytotoxicity against human OVCAR5 cells assessed as effect on cell growth at 10 uM incubated for 48 hrs by sulforhodamine B assay
Assay type: cell-based
Conditions: ovcar-5, 48 h

SMILES	Activity
CN(C)C(=O)[C@@H]1CCC(=O)N1	Non-Toxic
O=C(NCc1ccc(Cl)cc1Cl)[C@@H]1CCC(=O)N1C(c1ccc(Cl)cc1)c1ccc(Cl)cc1	Non-Toxic
O=C(NCc1ccc(Cl)cc1Cl)[C@@H]1CCC(=O)N1c1cncs1	Non-Toxic

Tested on: 786-0
Assay: Cytotoxicity against human 786-0 cells assessed as effect on cell growth at 10 uM incubated for 48 hrs by sulforhodamine B assay
Assay type: cell-based
Conditions: 786-0, 48 h

SMILES	Activity
CN(C)C(=O)[C@@H]1CCC(=O)N1	Non-Toxic
O=C(NCc1ccc(Cl)cc1Cl)[C@@H]1CCC(=O)N1C(c1ccc(Cl)cc1)c1ccc(Cl)cc1	Non-Toxic
O=C(NCc1ccc(Cl)cc1Cl)[C@@H]1CCC(=O)N1c1cncs1	Non-Toxic

Tested on: KM12
Assay: Cytotoxicity against human KM12 cells assessed as effect on cell growth at 10 uM incubated for 48 hrs by sulforhodamine B assay
Assay type: cell-based
Conditions: km12, 48 h

SMILES	Activity
CN(C)C(=O)[C@@H]1CCC(=O)N1	Non-Toxic
O=C(NCc1ccc(Cl)cc1Cl)[C@@H]1CCC(=O)N1C(c1ccc(Cl)cc1)c1ccc(Cl)cc1	Non-Toxic
O=C(NCc1ccc(Cl)cc1Cl)[C@@H]1CCC(=O)N1c1cncs1	Non-Toxic

Tested on: SF-539
Assay: Cytotoxicity against human SF539 cells assessed as effect on cell growth at 10 uM incubated for 48 hrs by sulforhodamine B assay
Assay type: cell-based
Conditions: sf-539, 48 h

SMILES	Activity
CN(C)C(=O)[C@@H]1CCC(=O)N1	Non-Toxic
O=C(NCc1ccc(Cl)cc1Cl)[C@@H]1CCC(=O)N1C(c1ccc(Cl)cc1)c1ccc(Cl)cc1	Non-Toxic
O=C(NCc1ccc(Cl)cc1Cl)[C@@H]1CCC(=O)N1c1cncs1	Non-Toxic
